The target in the test is T1, SIRT1 (Homo sapiens, UniProt Q96EB6).
T1 sequence (Q96EB6 1-747): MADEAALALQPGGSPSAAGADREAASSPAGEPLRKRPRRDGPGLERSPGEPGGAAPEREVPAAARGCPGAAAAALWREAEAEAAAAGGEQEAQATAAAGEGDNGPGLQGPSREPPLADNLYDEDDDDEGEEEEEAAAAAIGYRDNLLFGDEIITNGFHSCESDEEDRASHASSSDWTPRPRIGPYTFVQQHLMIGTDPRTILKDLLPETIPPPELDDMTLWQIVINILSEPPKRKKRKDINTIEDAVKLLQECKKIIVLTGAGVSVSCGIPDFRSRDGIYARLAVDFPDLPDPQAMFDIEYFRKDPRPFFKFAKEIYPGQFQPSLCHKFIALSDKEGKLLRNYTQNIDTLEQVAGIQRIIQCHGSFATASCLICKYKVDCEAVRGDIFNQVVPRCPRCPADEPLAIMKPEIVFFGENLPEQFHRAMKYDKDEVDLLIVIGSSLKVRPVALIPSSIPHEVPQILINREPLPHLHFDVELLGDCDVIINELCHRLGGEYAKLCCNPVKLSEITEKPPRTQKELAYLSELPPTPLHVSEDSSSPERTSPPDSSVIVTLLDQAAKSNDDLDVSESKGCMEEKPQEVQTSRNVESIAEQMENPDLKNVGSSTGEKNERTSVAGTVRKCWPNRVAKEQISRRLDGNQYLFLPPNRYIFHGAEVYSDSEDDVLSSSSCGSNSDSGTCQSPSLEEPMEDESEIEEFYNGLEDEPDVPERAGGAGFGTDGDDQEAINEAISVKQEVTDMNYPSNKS
Description: Mass spectrometry based SIRT1 deacetylase activation assay. The following applies: for EC1.5 μM: 0.5 μM peptide substrate, 120 μM βNAD+, 10 nM SIRT1, 25 min, 25° C.; for Emax: 25 min, mass spectrometry assay, read-out: % Fold Act. (percent maximum fold activation). The format is biochemical.

The structures appear in SMILES notation. Some results are limits rather than exact numbers.

Consider `O=C(Nc1cccc2c(=O)cc(-c3cnccc3C(F)(F)F)oc12)c1cnccn1` [Compound 308], for which the “EC1.5 μM” value is recorded as “B (EC1.5 1-25 μM)” and the Emax is > 200%.

For `O=C(Nc1cccc2c(=O)cc(-c3cnccc3C(F)(F)F)oc12)c1cscn1` [Compound 309], the “EC1.5 μM” value is “B (EC1.5 1-25 μM)” and the Emax is > 200%.

For `Cc1cnc(NC(=O)c2cccc3c(=O)cc(-c4cnccc4C(F)(F)F)oc23)s1` [Compound 310], the “EC1.5 μM” value is “B (EC1.5 1-25 μM)” and the Emax was < 200%.

Regarding `O=C(Nc1cccc2c(=O)cc(-c3ccccc3C(F)(F)F)oc12)c1cccc(N2CCOCC2)c1` [Compound 311], the “EC1.5 μM” value was “B (EC1.5 1-25 μM)” and the Emax was > 200%.

As to `O=C(Nc1cccc2c(=O)cc(-c3ccccc3C(F)(F)F)oc12)c1cccc(N2CCCC2)c1` [Compound 312], the “EC1.5 μM” value is given as “B (EC1.5 1-25 μM)” and the Emax is > 200%.

On to `O=C1CCC(C(=O)Nc2cccc3c(=O)cc(-c4ccccc4C(F)(F)F)oc23)N1` (centres unmarked) [Compound 313, 5-oxo-N-(4-oxo-2-(2-(trifluoromethyl)phenyl)-4H-chromen-8-yl)pyrrolidine-2-carboxamide], for which the “EC1.5 μM” value is reported as “B (EC1.5 1-25 μM)” and the Emax is > 200%.

As to `O=C(Nc1cccc2c(=O)cc(-c3ccccc3C(F)(F)F)oc12)c1cccc(CN2CCOCC2)n1` [Compound 315], the “EC1.5 μM” value is reported as “A (EC1-5<1.0)” and the Emax was > 200%.

Turning to `O=C(Nc1cccc2c(=O)cc(-c3ccccc3C(F)(F)F)oc12)c1cncc(N2CCOCC2)n1` [Compound 316], the “EC1.5 μM” value is reported as “A (EC1-5<1.0)” and the Emax was > 200%.

With `CN1CCCC1C(=O)Nc1cccc2c(=O)cc(-c3ccccc3C(F)(F)F)oc12` (centres unmarked) [Compound 317], the “EC1.5 μM” value is on record as “B (EC1.5 1-25 μM)” and the Emax was < 200%.

Regarding `O=C(Nc1cccc2c(=O)cc(-c3ccccc3C(F)(F)F)oc12)c1cccc(OCC(O)CO)n1` (centres unmarked) [Compound 318], the “EC1.5 μM” value is on record as “A (EC1-5<1.0)” and the Emax was > 200%.

As to `O=C(Nc1cccc2c(=O)cc(-c3ccccc3Cl)oc12)c1cncc(N2CCOCC2)n1` [Compound 319], the “EC1.5 μM” value was “A (EC1-5<1.0)” and the Emax is > 200%.

Consider `O=C(Nc1cccc2c(=O)cc(-c3ccccc3C(F)(F)F)oc12)c1cccc(CN2CCCC2)n1` [Compound 320], for which the “EC1.5 μM” value was “A (EC1-5<1.0)” and the Emax is > 200%.

In the case of `O=C(Nc1cccc2c(=O)cc(-c3ccccc3C(F)(F)F)oc12)c1cccnc1OCC(O)CO` (centres unmarked) [Compound 321], the “EC1.5 μM” value was “B (EC1.5 1-25 μM)” and the Emax is > 200%.

Turning to `O=C(Nc1cccc2c(=O)cc(-c3ccccc3C(F)(F)F)oc12)c1cccc(N2CCOCC2)n1` [Compound 322], the “EC1.5 μM” value is given as “A (EC1-5<1.0)” and the Emax was > 200%.

For `O=C(Nc1cccc2c(=O)cc(-c3ccccc3C(F)(F)F)oc12)c1cccc(N2CCCC2)n1` [Compound 323], the “EC1.5 μM” value was “A (EC1-5<1.0)” and the Emax was > 200%.

For `O=C(Nc1cccc2c(=O)cc(-c3ccccc3Cl)oc12)c1cccc(N2CCOCC2)n1` [Compound 324], the “EC1.5 μM” value is listed as “A (EC1-5<1.0)” and the Emax was > 200%.

As to `O=C(Nc1cccc2c(=O)cc(-c3ccccc3Cl)oc12)c1cccc(N2CCCC2)n1` [Compound 325], the “EC1.5 μM” value is “A (EC1-5<1.0)” and the Emax is > 200%.

`O=c1cc(-c2ccccc2C(F)(F)F)oc2c(NS(=O)(=O)c3cccnc3)cccc12` [Compound 326, N-(4-oxo-2-(2-(trifluoromethyl)phenyl)-4H-chromen-8-yl)pyridine-3-sulfonamide]: the “EC1.5 μM” value is on record as “C (EC1.5>25 μM)” and the Emax is < 200%.

`O=C(Nc1cccc2c(=O)cc(-c3ccccc3Cl)oc12)c1cccc(CN2CCCC2)n1` [Compound 327]: the “EC1.5 μM” value is “A (EC1-5<1.0)” and the Emax is > 200%.

As for `O=C(Nc1cccc2c(=O)cc(-c3ccccc3C(F)(F)F)oc12)c1cccc(CN2CCOCC2)c1` [Compound 328], the “EC1.5 μM” value is reported as “B (EC1.5 1-25 μM)” and the Emax was > 200%.

As to `O=C(Nc1cccc2c(=O)cc(-c3ccccc3Cl)oc12)c1cccc(N2CCCC2)c1` [Compound 329], the “EC1.5 μM” value was “A (EC1-5<1.0)” and the Emax was > 200%.

Consider `O=C(Nc1cccc2c(=O)cc(-c3ccccc3Cl)oc12)c1cccc(CN2CCOCC2)c1` [Compound 330], for which the “EC1.5 μM” value is reported as “B (EC1.5 1-25 μM)” and the Emax was > 200%.

Consider `O=C(Nc1cccc2c(=O)cc(-c3ccccc3Cl)oc12)c1cccc(CN2CCOCC2)n1` [Compound 331], for which the “EC1.5 μM” value is “A (EC1-5<1.0)” and the Emax is > 200%.

Turning to `O=C(Nc1cccc2c(=O)cc(-c3ccccc3Cl)oc12)c1cccnc1OCC(O)CO` (centres unmarked) [Compound 332], the “EC1.5 μM” value was “B (EC1.5 1-25 μM)” and the Emax is > 200%.

`O=C(Nc1cccc2c(=O)cc(-c3ccccc3Cl)oc12)c1cccc(CN2CCCC2)c1` [Compound 333]: the “EC1.5 μM” value is “B (EC1.5 1-25 μM)” and the Emax was > 200%.

For the molecule `O=C(Nc1cccc2c(=O)cc(-c3ccccc3Cl)oc12)c1cccc(OCC(O)CO)n1` (centres unmarked) [Compound 334], the “EC1.5 μM” value is “A (EC1-5<1.0)” and the Emax is > 200%.

With `O=C(Nc1cccc2c(=O)cc(-c3ccccc3Cl)oc12)c1ncccn1` [Compound 335], the “EC1.5 μM” value was “A (EC1-5<1.0)” and the Emax is > 200%.

With `O=C(Nc1cccc2c(=O)cc(-c3ccccc3Cl)oc12)c1cccc(N2CCOCC2)c1` [Compound 336], the “EC1.5 μM” value is “B (EC1.5 1-25 μM)” and the Emax is > 200%.

Turning to `Cn1nccc1C(=O)Nc1cccc2c(=O)cc(-c3ccccc3Cl)oc12` [Compound 337], the “EC1.5 μM” value was “A (EC1-5<1.0)” and the Emax was > 200%.

Turning to `O=C(Nc1cccc2c(=O)cc(-c3ccccc3C(F)F)oc12)c1cccc(OCC(O)CO)n1` (centres unmarked) [Compound 338], the “EC1.5 μM” value is given as “A (EC1-5<1.0)” and the Emax is > 200%.

Turning to `O=C(Nc1cccc2c(=O)cc(-c3ccccc3C(F)F)oc12)c1cccc(CN2CCOCC2)n1` [Compound 339], the “EC1.5 μM” value was “A (EC1-5<1.0)” and the Emax was > 200%.

(Values after US8987258B2 (priority 2008, dated 2015).)
